Some test systems named below: 786-0 renal; HL-60(TB) leukemia; HOP-62 NSCLC; MALME-3M melanoma; NCI-H522 lung; OVCAR-3 ovarian; SK-MEL-5 melanoma; SK-OV-3 ovarian; SR leukemia; UACC-62 melanoma.
Holding throughout (assay): NCI-60 cell line screen, 48 h

Where “and” joins values, the source holds several entries; their conditions need not be identical. Equal entries are not always repeated.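 These data come from cells grown in 96-well plates and exposed to compound for 48 hours at five concentrations. The concentration for 50% growth inhibition is given as GI50. TGI: total growth inhibition.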

On to `COC(C(=O)[C@@H](O)[C@@H](C)O)[C@@H]1Cc2cc3cc(O[C@H]4C[C@@H](O[C@H]5C[C@@H](O)[C@H](O)C(C)O5)[C@H](O)C(C)O4)c(C)c(O)c3c(O)c2C(=O)[C@H]1O[C@H]1C[C@@H](O[C@H]2C[C@@H](O[C@H]3C[C@@H](O)[C@H](OC)C(C)O3)[C@@H](O)C(C)O2)[C@H](O)C(C)O1` (stereo not given in full), for which the GI50 is 0.0313 µM with 786-0 renal; 0.0651 µM in the assay with HL-60(TB) leukemia; 0.0151 µM in the assay with HOP-62 NSCLC; 0.011 µM in the assay on MALME-3M melanoma; 0.0101 µM with NCI-H522 lung; 0.0212 µM in the assay on OVCAR-3 ovarian. Also, the figures for the GI50 with SK-MEL-5 melanoma and in the assay with UACC-62 melanoma were 0.00955 µM and 0.00659 µM, respectively. Moreover, the TGI is > 26.9 µM in the assay on 786-0 renal; 0.767 µM in the assay with HL-60(TB) leukemia; 0.717 µM in the assay with HOP-62 NSCLC; 0.088 µM in the assay with MALME-3M melanoma; 0.0569 µM in the assay on NCI-H522 lung; 1.04 µM with OVCAR-3 ovarian. The TGI with SK-MEL-5 melanoma was 0.0444 µM; in the assay with SK-OV-3 ovarian, > 33.3 µM; with SR leukemia it was > 33.3 µM; in the assay with UACC-62 melanoma it was 0.0217 µM.
For `O=C(OCC(OC(=O)c1ccccc1)C(OC(=O)c1ccccc1)C(OC(=O)c1ccccc1)c1cnn(-c2ccccc2)n1)c1ccccc1` (stereo not given), the TGI with 786-0 renal, in the assay with HL-60(TB) leukemia, in the assay with HOP-62 NSCLC, in the assay on MALME-3M melanoma, with NCI-H522 lung and with OVCAR-3 ovarian was > 100 µM in each case. In addition, the TGI with SK-MEL-5 melanoma, in the assay with SK-OV-3 ovarian, in the assay on SR leukemia and with UACC-62 melanoma was > 100 µM each time.
For the compound `Cc1ccc(S(=O)(=O)NC(=O)NC2=NC(C)(C)N(c3ccc(Cl)c(Cl)c3)C(N)=N2)cc1`, the TGI in the assay on 786-0 renal, with HL-60(TB) leukemia, in the assay on HOP-62 NSCLC, in the assay on MALME-3M melanoma, with NCI-H522 lung and with OVCAR-3 ovarian was > 100 µM in each case. Also, the TGI in the assay with SK-MEL-5 melanoma, in the assay with SK-OV-3 ovarian, in the assay with SR leukemia and in the assay with UACC-62 melanoma was > 100 µM throughout.
For `Cn1cc(-c2ccc(-c3cncc(Cl)c3N3CCC4(CCNC4=O)CC3)cc2)cn1`, the GI50 was 14.6 µM with 786-0 renal; 20.4 µM with HL-60(TB) leukemia; 39.6 µM in the assay on HOP-62 NSCLC; 66.6 µM in the assay with MALME-3M melanoma; 26.4 µM in the assay on NCI-H522 lung; 34.3 µM with OVCAR-3 ovarian. Also, the GI50 with SK-MEL-5 melanoma is 40.3 µM; with SK-OV-3 ovarian, 41.6 µM; in the assay on SR leukemia, 1.68 µM; with UACC-62 melanoma, 60.7 µM. Besides, the TGI in the assay on 786-0 renal is > 100 µM; in the assay with HL-60(TB) leukemia it was 55.5 µM; in the assay with HOP-62 NSCLC, > 100 µM; in the assay on MALME-3M melanoma, > 100 µM; with NCI-H522 lung, > 100 µM; with OVCAR-3 ovarian, > 100 µM. Moreover, the TGI in the assay with SK-MEL-5 melanoma is > 100 µM; with SK-OV-3 ovarian, > 100 µM; in the assay with SR leukemia, 21.2 µM; in the assay on UACC-62 melanoma it was > 100 µM.
Consider `CC/C=C/C/C=C/C/C=C/C/C=C/C/C=C/C/C=C/CCC(=O)Nc1ccn([C@@H]2O[C@H](CO)[C@@H](O)C2(F)F)c(=O)n1`, for which the GI50 with 786-0 renal was 0.0141 µM; in the assay on HL-60(TB) leukemia it was 0.059 µM; with HOP-62 NSCLC, 0.0293 µM; with MALME-3M melanoma it was 9.33 µM; in the assay with NCI-H522 lung it was 0.261 µM; in the assay with OVCAR-3 ovarian, 4.79 µM. The GI50 in the assay with SK-MEL-5 melanoma is 0.348 µM; with SK-OV-3 ovarian, 0.14 µM; with SR leukemia it was 0.0387 µM; in the assay on UACC-62 melanoma, 0.0499 µM. The TGI turned out to be 25.5 µM with 786-0 renal; 9.24 µM in the assay on HL-60(TB) leukemia; 6.55 µM in the assay with HOP-62 NSCLC; 24.2 µM in the assay on MALME-3M melanoma; 37.7 µM in the assay on NCI-H522 lung; 25.5 µM with OVCAR-3 ovarian. Besides, the TGI in the assay on SK-MEL-5 melanoma was 17.8 µM; in the assay on SK-OV-3 ovarian, > 52.2 µM; in the assay on SR leukemia, 8.3 µM; in the assay with UACC-62 melanoma, 11.9 µM.
Consider `OCC(O)CNc1ccnc2cc(Cl)ccc12` (stereo not given), for which the TGI in the assay with 786-0 renal, in the assay with HL-60(TB) leukemia, in the assay on HOP-62 NSCLC, in the assay with MALME-3M melanoma, in the assay on NCI-H522 lung and in the assay with OVCAR-3 ovarian was > 100 µM in each case. Moreover, the TGI in the assay on SK-MEL-5 melanoma, in the assay on SK-OV-3 ovarian, in the assay with SR leukemia and with UACC-62 melanoma was > 100 µM each time.
`Nc1nc(N)c2cc(CNc3ccc(C(=O)NC(CC(=O)O)C(=O)O)c(Cl)c3)ccc2n1` (stereo not given): the GI50 in the assay with 786-0 renal was < 0.01 µM; with HOP-62 NSCLC it was 0.308 µM and 0.05 µM; in the assay on MALME-3M melanoma, > 500 µM; in the assay with NCI-H522 lung it was 342 µM; in the assay with OVCAR-3 ovarian, 177 µM; in the assay with SK-MEL-5 melanoma, 0.05 µM. The GI50 is 74.7 µM with SK-OV-3 ovarian and 0.05 µM in the assay on UACC-62 melanoma. The TGI in the assay with 786-0 renal, in the assay on HL-60(TB) leukemia, in the assay with HOP-62 NSCLC, in the assay with MALME-3M melanoma, with NCI-H522 lung and in the assay with OVCAR-3 ovarian was > 500 µM throughout. The TGI in the assay with SK-MEL-5 melanoma, in the assay with SK-OV-3 ovarian, with SR leukemia and in the assay on UACC-62 melanoma was > 500 µM in each case.
As for `O=C(OCc1ccc2c(Cl)cc(Cl)c(O)c2n1)N1CCN(C(=O)c2cc3cc(F)ccc3[nH]2)CC1`, the GI50 was 4.3 µM in the assay on 786-0 renal; 1.06 µM in the assay with HL-60(TB) leukemia; 1.31 µM in the assay with HOP-62 NSCLC; 3.71 µM in the assay on MALME-3M melanoma; 0.303 µM with NCI-H522 lung; 0.501 µM in the assay with OVCAR-3 ovarian. Further, the GI50 with SK-MEL-5 melanoma is 1.11 µM; in the assay with SK-OV-3 ovarian, 3.6 µM; with SR leukemia it was 0.401 µM; with UACC-62 melanoma it was 1.28 µM. Moreover, the TGI in the assay on 786-0 renal is > 100 µM; in the assay on HL-60(TB) leukemia, 3.53 µM; in the assay with HOP-62 NSCLC it was > 100 µM; with MALME-3M melanoma, > 100 µM; in the assay on NCI-H522 lung it was > 100 µM; in the assay on OVCAR-3 ovarian, 3.7 µM. Moreover, the TGI in the assay with SK-MEL-5 melanoma is 3.9 µM; with SK-OV-3 ovarian, > 100 µM; with SR leukemia it was > 100 µM; with UACC-62 melanoma, > 100 µM.
As to `NC(=S)N/N=C/c1cc(-c2cccc(N)c2)ccn1`, the GI50 in the assay with 786-0 renal was 1.29 µM; in the assay with HL-60(TB) leukemia it was 0.281 µM; in the assay on HOP-62 NSCLC it was 2.44 µM; in the assay on MALME-3M melanoma, 1.31 µM; in the assay with NCI-H522 lung, 0.202 µM; in the assay with OVCAR-3 ovarian it was 1.67 µM. Also, the GI50 with SK-MEL-5 melanoma was 1.69 µM; in the assay with SK-OV-3 ovarian, 3.29 µM; in the assay with SR leukemia it was 0.346 µM; in the assay with UACC-62 melanoma, 1.38 µM. Moreover, the TGI with 786-0 renal is 6.34 µM; in the assay on HOP-62 NSCLC, > 36.9 µM; with MALME-3M melanoma, 24 µM; in the assay on NCI-H522 lung, 0.564 µM; with OVCAR-3 ovarian, 23.2 µM; in the assay on SK-MEL-5 melanoma, 7.26 µM. For the same compound, the TGI in the assay on SK-OV-3 ovarian is > 93.8 µM; in the assay on SR leukemia it was > 27.9 µM; in the assay with UACC-62 melanoma, > 24.5 µM.

Source of the values: PubChem BioAssay (NCI).
